Read-outs that look alike come from different tables or passages of the source. Marks after values point to notes of the source that are not given here.

Here are results for 7 compounds from patent publication US20250387298A1, “FLEXIBLE MEDICAL CONTAINER” (B. Braun Melsungen AG, priority 2024, published 2025).

The nature of this data set: Simulating experiments: Pip-Taz powder incubated with potential impurities in glass vials, turbidity after reconstitution. It counts as physicochemical. The protocol:
In order to mimic and evaluate the impact of Ti, Al, Sn, Ni, Mg, Cr, and Si containing impurities on the turbidity of piperacillin and tazobactam formation, the following simulating experiments were carried out (reference 6.7, Notebook BB5254/125, 134, 140-141, 145-146). Powders of piperacillin and tazobactam were mixed with different potential impurities in glass vials and incubated at 40° C. for 3 weeks. […] [table]

[1] abbreviates: 40° C. for 3 weeks in glass vial, 0.3 g Pip-Taz with 1-2 mg chemical, reconstituted in 12 mL 0.9% NaCl.
Setting [2] is: 40° C. for 3 weeks, chemical without drug, 0.9% NaCl.
Where [3] appears, read: Drug & Chemicals minus Chemical only, 40° C. for 3 weeks.
[4] abbreviates: conclusion from Table 2, by metal/element of the impurity.

Take `CC(=O)/C=C(/C)[O-].CC(=O)/C=C(/C)[O-].[O]=[Ti+2]` [titanium (IV) oxyacetylacetonate]: the “Turbidity, Drug & Chemicals (Target Mole Ratio = 100:1, ~100 ppm for chemicals)” value under setting [1] is 179.33. The “Turbidity, Chemical only (~100 ppm)” value under setting [2] is 5.44. Further, the “Turbidity Delta” value under setting [3] is on record as 173.89. Moreover, the “impact on the turbidity of piperacillin and tazobactam” value under setting [4] is listed as “substantial effect”.
The like results for `O[Si](O)(O)C1CCCCC1` [Cyclohexyl-dihydroxyl-hydroxylsilane] were, in that order, 18.20, 0.54, 17.66 and “substantial effect”.
On the same counts, the results for aluminum chloride hydrate are 3.01, 0.13, 2.88 and “substantial effect”.
For `O.O.O.O.O.O.[Cl][Cr]([Cl])[Cl]` [chromium (Ill) chloride hexahydrate], the “Turbidity, Drug & Chemicals (Target Mole Ratio = 100:1, ~100 ppm for chemicals)” value under setting [1] is given as 15.60. The “Turbidity, Chemical only (~100 ppm)” value under setting [2] is 0.18. The “Turbidity Delta” value under setting [3] is listed as 15.42.
Turning to `CC(=O)[O-].CC(=O)[O-].[Fe+2]` [iron(ll) acetate], under setting [1], the “Turbidity, Drug & Chemicals (Target Mole Ratio = 100:1, ~100 ppm for chemicals)” value is on record as 98.77. The “Turbidity, Chemical only (~100 ppm)” value under setting [2] is listed as 9.66. Also, the “Turbidity Delta” value under setting [3] was 89.10.
For `O=S(=O)([O-])[O-].[Mg+2]` [magnesium sulfate], the “Turbidity, Drug & Chemicals” value is 1.53*; the “impact on the turbidity of piperacillin and tazobactam” value was “no impact”.
Turning to `CC(=O)[O-].CC(=O)[O-].CC(=O)[O-].CC(=O)[O-].[Sn+4]` [tin (IV) acetate], the “Turbidity Delta” value is on record as 1.04; the “Turbidity, Chemical only (~100 ppm)” value is listed as 0.08; the “Turbidity, Drug & Chemicals (Target Mole Ratio = 100:1, ~100 ppm for chemicals)” value was 1.13.
